Source: PubChem BioAssay AID192 (DTP/NCI, 2004)
Toxic doses and inconclusive results are not listed.

Test system: BDF1 mice, B16 melanoma ip, median survival T/C
Assay: NCI In Vivo Anticancer Drug Screen. Data for tumor model B16 Melanoma (intraperitoneal) in B6D2F1 (BDF1) mice
Conditions: endpoint: median survival time, higher = longer survival
Protocol: The antitumor activity of compounds was measured in mice bearing transplantable tumors. Survival or tumor size were measured and the results are expressed as the measurement made in the treated group (T) divided by the measurement made in the vehicle treated control group (C). The tumor model used in this assay is B16 Melanoma (intraperitoneal) in B6D2F1 (BDF1) mice

[1] = dose: 1.56 mg/kg/injection, schedule: Q01DX009 (ip), vehicle: saline with Tween-80
[2] = dose: 3.12 mg/kg/injection, schedule: Q01DX009 (ip), vehicle: saline with Tween-80
[3] = dose: 6.25 mg/kg/injection, schedule: Q01DX009 (ip), vehicle: saline with Tween-80
[4] = dose: 50.0 mg/kg/injection, schedule: Q01DX009 (ip), vehicle: saline with Tween-80
[5] = dose: 100.0 mg/kg/injection, schedule: Q01DX009 (ip), vehicle: saline with Tween-80
[6] = dose: 200.0 mg/kg/injection, schedule: Q01DX009 (ip), vehicle: saline with Tween-80
[7] = dose: 25.0 mg/kg/injection, schedule: Q01DX009 (ip), vehicle: Klucel (hydroxypropylcellulose) (HPC)
[8] = dose: 50.0 mg/kg/injection, schedule: Q01DX009 (ip), vehicle: Klucel (hydroxypropylcellulose) (HPC)
[9] = dose: 100.0 mg/kg/injection, schedule: Q01DX009 (ip), vehicle: Klucel (hydroxypropylcellulose) (HPC)
[10] = dose: 200.0 mg/kg/injection, schedule: Q01DX009 (ip), vehicle: Klucel (hydroxypropylcellulose) (HPC)
[11] = dose: 75.0 mg/kg/injection, schedule: Q01DX009 (ip), vehicle: Klucel (hydroxypropylcellulose) (HPC)
[12] = dose: 150.0 mg/kg/injection, schedule: Q01DX009 (ip), vehicle: Klucel (hydroxypropylcellulose) (HPC)
[13] = dose: 300.0 mg/kg/injection, schedule: Q01DX009 (ip), vehicle: Klucel (hydroxypropylcellulose) (HPC)
[14] = dose: 25.0 mg/kg/injection, schedule: Q01DX009 (ip), vehicle: saline
[15] = dose: 50.0 mg/kg/injection, schedule: Q01DX009 (ip), vehicle: saline
[16] = dose: 100.0 mg/kg/injection, schedule: Q04DX003 (ip), vehicle: saline with Tween-80
[17] = dose: 12.5 mg/kg/injection, schedule: Q01DX009 (ip), vehicle: Klucel (hydroxypropylcellulose) (HPC)
[18] = dose: 200.0 mg/kg/injection, schedule: Q01DX009 (ip), vehicle: saline
[19] = dose: 200.0 mg/kg/injection, schedule: Q04DX003 (ip), vehicle: saline with Tween-80
[20] = dose: 400.0 mg/kg/injection, schedule: Q04DX003 (ip), vehicle: saline with Tween-80
[21] = dose: 12.5 mg/kg/injection, schedule: Q01DX009 (ip), vehicle: saline
[22] = dose: 100.0 mg/kg/injection, schedule: Q04DX003 (ip), vehicle: Klucel (hydroxypropylcellulose) (HPC)
[23] = dose: 200.0 mg/kg/injection, schedule: Q04DX003 (ip), vehicle: Klucel (hydroxypropylcellulose) (HPC)
[24] = dose: 400.0 mg/kg/injection, schedule: Q01DX009 (ip), vehicle: Klucel (hydroxypropylcellulose) (HPC)
[25] = dose: 400.0 mg/kg/injection, schedule: Q04DX003 (ip), vehicle: Klucel (hydroxypropylcellulose) (HPC)

For `CC(=O)OC1COC(NC(=O)N(CCCl)N=O)C(OC(C)=O)C1OC(C)=O` (stereo not drawn), the T/C (dose: 0.18 mg/kg/injection, schedule: Q01DX009 (ip), vehicle: saline with Tween-80) was 106 % of control, the T/C (dose: 0.2 mg/kg/injection, schedule: Q01DX009 (ip), vehicle: saline with Tween-80) was 155 % of control and the T/C (dose: 0.37 mg/kg/injection, schedule: Q01DX009 (ip), vehicle: saline with Tween-80) was 118 % of control. The T/C (dose: 0.39 mg/kg/injection, schedule: Q01DX009 (ip), vehicle: saline with Tween-80) was 114 % of control, the T/C (dose: 1.5 mg/kg/injection, schedule: Q01DX009 (ip), vehicle: saline with Tween-80) was 168 % of control and the T/C [1] was 170 % of control. The T/C (dose: 3.0 mg/kg/injection, schedule: Q01DX009 (ip), vehicle: saline with Tween-80) was 173 % of control, the T/C [2] was 209 % of control and the T/C (dose: 6.0 mg/kg/injection, schedule: Q01DX009 (ip), vehicle: saline with Tween-80) was 162 % of control. For the same molecule, the T/C [3] was 190 % of control.

With `O=C(NC(Cc1ccccc1)C(=O)NC(Cc1c[nH]c2ccccc12)C(=O)O)OCc1ccccc1` (stereo not drawn) the T/C [4] was 98 % of control, the T/C [5] was 100 % of control and the T/C [6] was 94 % of control.

`CCC(C)C(CO)c1ccccc1` (stereo not drawn) was tested, and the T/C (dose: 25.0 mg/kg/injection, schedule: Q01DX009 (ip), vehicle: saline with Tween-80) was 102 % of control and the T/C [4] was 99 % of control.

In the case of `O=C(O)c1ccc(OC(F)(F)C(F)Cl)cc1` (stereo not drawn), the T/C [7] is reported as 106 % of control, the T/C [8] is reported as 100 % of control and the T/C [9] is reported as 106 % of control.

For `CCCN1CSC(=S)N(CCC)C1`, the T/C [8] was 89 % of control, the T/C [9] was 102 % of control and the T/C [10] was 102 % of control.

For `O=C(NCCCCCCCCCCNC(=O)N1CC1)N1CC1`, the T/C (dose: 0.75 mg/kg/injection, schedule: Q01DX009 (ip), vehicle: saline) was 115 % of control and the T/C (dose: 3.0 mg/kg/injection, schedule: Q01DX009 (ip), vehicle: saline) was 154 % of control.

`CCC(C)C1NC(=O)C(NC(=O)c2c3nc4c(C(=O)NC5C(=O)NC(C(C)CC)C(=O)N6CCCC6C(=O)N(C)CC(=O)N(C)C(C(C)C)C(=O)OC5C)cc([N+](=O)[O-])c(C)c4oc-3c(C)c(=O)c2N)C(C)OC(=O)C(C(C)C)N(C)C(=O)CN(C)C(=O)C2CCCN2C1=O` (stereo not drawn) was tested, and the T/C (dose: 25.0 micrograms/kg/injection, schedule: Q01DX009 (ip), vehicle: water) was 110 % of control, the T/C (dose: 50.0 micrograms/kg/injection, schedule: Q01DX009 (ip), vehicle: water) was 119 % of control and the T/C (dose: 100.0 micrograms/kg/injection, schedule: Q01DX009 (ip), vehicle: water) was 124 % of control. For the same molecule, the T/C (dose: 400.0 micrograms/kg/injection, schedule: Q01DX009 (ip), vehicle: water) was 160 % of control.

`Cc1c(Cl)cccc1NC(=O)c1cccc([N+](=O)[O-])c1` was tested, and the T/C [11] was 95 % of control, the T/C [12] was 87 % of control and the T/C [13] was 91 % of control.

`COc1ccccc1N1C(N)=NC(N)=NC1(C)C` was tested, and the T/C [14] was 102 % of control and the T/C [15] was 108 % of control.

`Oc1c(Cl)cc(Cl)cc1/C=N/NC(=S)Nc1cc(C(F)(F)F)cc(C(F)(F)F)c1` was tested, and the T/C (dose: 50.0 mg/kg/injection, schedule: Q01DX009 (ip), vehicle: olive oil, sesame oil, peanut oil) was 92 % of control and the T/C (dose: 200.0 mg/kg/injection, schedule: Q01DX009 (ip), vehicle: olive oil, sesame oil, peanut oil) was 96 % of control.

In the case of `Ic1ncnc2c1ncn2C1CCCO1` (stereo not drawn), the T/C [9] is reported as 118 % of control and the T/C [10] is reported as 104 % of control.

With `C=CCNC(=O)/C=C/C(=O)NCC=C` the T/C (dose: 25.0 mg/kg/injection, schedule: Q04DX003 (ip), vehicle: saline with Tween-80) was 123 % of control and the T/C [16] was 121 % of control.

With `Cc1ccc(NC(=S)NC(Cc2ccccc2)c2ccccc2)cc1` (stereo not drawn) the T/C [17] was 102 % of control, the T/C [7] was 100 % of control and the T/C (dose: 37.5 mg/kg/injection, schedule: Q04DX003 (ip), vehicle: Klucel (hydroxypropylcellulose) (HPC)) was 100 % of control. For the same molecule, the T/C [8] was 100 % of control, the T/C (dose: 75.0 mg/kg/injection, schedule: Q04DX003 (ip), vehicle: Klucel (hydroxypropylcellulose) (HPC)) was 92 % of control and the T/C (dose: 150.0 mg/kg/injection, schedule: Q04DX003 (ip), vehicle: Klucel (hydroxypropylcellulose) (HPC)) was 100 % of control.

`Cc1cccc(Nc2c(N)nc(N)nc2N)c1` was tested, and the T/C [17] was 101 % of control, the T/C [7] was 104 % of control and the T/C [8] was 106 % of control.

`CC(C)NNC(=O)C(C)O` (stereo not drawn) was tested, and the T/C [14] was 118 % of control, the T/C [15] was 102 % of control and the T/C [18] was 102 % of control.

In the case of `BrCc1ccc2c3c(ccc(CBr)c13)CC2`, the T/C [17] is reported as 103 % of control, the T/C [7] is reported as 98 % of control and the T/C [8] is reported as 96 % of control. For the same molecule, the T/C [4] was 112 % of control, the T/C [9] was 100 % of control and the T/C [5] was 122 % of control. The T/C [16] was 107 % of control, the T/C [6] was 95 % of control and the T/C [19] was 112 % of control. The T/C [20] was 105 % of control.

For `CC1(C)N=C(N)N=C(N)N1c1cccc(CNC(=O)Nc2cccc(S(=O)(=O)F)c2)c1`, the T/C [15] was 101 % of control.

In the case of `CCCOP(OCCC)OCCC`, the T/C (dose: 6.25 mg/kg/injection, schedule: Q01DX009 (ip), vehicle: saline) is reported as 109 % of control, the T/C [21] is reported as 118 % of control and the T/C [14] is reported as 100 % of control. For the same molecule, the T/C [15] was 92 % of control.

`N#C/C(=C\c1c[nH]c2ccccc12)C(N)=O` was tested, and the T/C [5] was 108 % of control, the T/C [6] was 108 % of control and the T/C (dose: 400.0 mg/kg/injection, schedule: Q01DX009 (ip), vehicle: saline with Tween-80) was 108 % of control.

With `Cc1ccc(NC(=O)COc2ccc(Cl)cc2)c([N+](=O)[O-])c1` the T/C [11] was 95 % of control, the T/C [12] was 97 % of control and the T/C [13] was 90 % of control.

In the case of `CCOC(=O)CCc1ccc(O)c(O)c1`, the T/C (dose: 37.5 mg/kg/injection, schedule: Q04DX003 (ip), vehicle: saline) is reported as 102 % of control, the T/C [15] is reported as 113 % of control and the T/C (dose: 75.0 mg/kg/injection, schedule: Q04DX003 (ip), vehicle: saline) is reported as 102 % of control. The T/C (dose: 100.0 mg/kg/injection, schedule: Q01DX009 (ip), vehicle: saline) was 110 % of control, the T/C (dose: 150.0 mg/kg/injection, schedule: Q04DX003 (ip), vehicle: saline) was 97 % of control and the T/C [18] was 97 % of control.

With `c1ccc2sc(SSN3CCOCC3)nc2c1` the T/C [17] was 97 % of control and the T/C [8] was 94 % of control.

`O=[N+]([O-])c1cc([N+](=O)[O-])c(/C=C/c2ccccc2)c([N+](=O)[O-])c1/C=C/c1ccccc1` was tested, and the T/C [9] was 105 % of control, the T/C [22] was 102 % of control and the T/C [10] was 107 % of control. For the same molecule, the T/C [23] was 94 % of control, the T/C [24] was 94 % of control and the T/C [25] was 89 % of control.

`Nc1nc(N)c2c(ccc3c2ccn3Cc2cccc([N+](=O)[O-])c2)n1` was tested, and the T/C [1] was 90 % of control, the T/C [2] was 100 % of control and the T/C [3] was 119 % of control.

With `CCC(=O)c1cc([N+](=O)[O-])ccc1NC(C)=O` the T/C [9] was 101 % of control, the T/C [10] was 107 % of control and the T/C [24] was 109 % of control.

`Nc1nc(N)c2c(Cl)c(CNc3ccc(Cl)c(Cl)c3)ccc2n1` was tested, and the T/C (dose: 0.5 mg/kg/injection, schedule: Q01DX009 (ip), vehicle: saline with Tween-80) was 98 % of control, the T/C (dose: 1.0 mg/kg/injection, schedule: Q01DX009 (ip), vehicle: saline with Tween-80) was 96 % of control and the T/C (dose: 2.0 mg/kg/injection, schedule: Q01DX009 (ip), vehicle: saline with Tween-80) was 113 % of control. The T/C (dose: 4.0 mg/kg/injection, schedule: Q01DX009 (ip), vehicle: saline with Tween-80) was 107 % of control.

With `CNC(=O)ON(C(C)=O)C(=O)NC` the T/C [21] was 87 % of control and the T/C [14] was 88 % of control.

In the case of `c1ccc2cc(-c3csc4ccccc34)ccc2c1`, the T/C [22] is reported as 91 % of control, the T/C [23] is reported as 97 % of control and the T/C [25] is reported as 102 % of control.

For `CCOC(=O)CN=NNc1[nH]ncc1C(N)=O`, the T/C [16] was 100 % of control, the T/C [19] was 104 % of control and the T/C [20] was 111 % of control.
